What was measured:
[1] = target: EGFR Del19/T790M/C797S (H1975-clone #28) (Homo sapiens, UniProt P00533, T790M/C797S, form not given); assay: EGFR degradation, HTRF total-EGFR assay, H1975-clone #28 (DTC); type: cell-based; conditions: H1975-clone #28 Del19/T790M/C797S, 16 h treatment
From the text: (§1) H1975-clone #28 (Del19/T790M/C797S, or abbr: DTC), H1975-clone #23 (Del19/C797S, or abbr: DC), H1975-clone #25 (L858R/T790M/C797S, or abbr: LTC) and H1975-clone #8 (L858R/C797S, or abbr: LC). EGFR-Del19/T790M/C797S, EGFR-Del19/C797S, EGFR-L858R/T790M/C797S and EGFR-L858R/C797S were stably expressed in H1975 cell lines by lentivirus-mediated over-expression, respectively. The EGFR over-expressed cells then underwent knockout, in which the EGFR targeting sgRNA was designed to only target the endogenous EGFR copies and preserve the exogenous EGFR copies. Followed by the knockout, the edited H1975 cells were seeded in 96 well plates at the concentration of 1 cell/well, cultured for about 2 weeks to allow single clones formation. The formed clones were screened by DNA sequencing and whole exon sequencing analysis for the desired edition. H1975-clone #28, H1975-clone #23, H1975-clone #25 and H1975-clone #8 were finally confirmed as homozygous Del19/T790M/C797S EGFR, Del19/C797S EGFR, L858R/T790M/C797S EGFR and L858R/C797S EGFR clones, respectively.
(§2) H1975-#25, H1975-#28, H1975-#23 and H1975-#8 cells are treated with compounds diluted in 0.2% DMSO cell culture medium on day 2, incubate for 16 h, 37° C., 5% CO2. The final concentration of compounds in all assay is start with 10 μM, 5-fold dilution, total 8 doses were included.
(§3) Total-EGFR cellular kit(64NG1PEH) were used for evaluating EGFR degradation.
(§4) After 16 h treatment, add HTRF lysis buffer to each well; seal the plate and incubate 1 hour at room temperature on a plate shaker; Once the cells are lysed, 16 μL of cell lysate are transferred to a PE 384-well HTRF detection plate; 4 μL of pre-mixed HTRF antibodies are added to each well; cover the plate with a plate sealer, spin 1000 rpm for 1 min, incubate overnight at room temperature; read on BMG PheraStar with HTRF protocol (337 nm-665 nm-620 nm).
(§5) The inhibition (degradation) percentage of the compound was calculated by the following equation:
(§6) Inhibition percentage of Compound=100−100×(Signal−low control)/(High control−low control), wherein signal=each test compound group
(§7) High control=Cell group with added DMSO and without compound, indicating microplate readings without EGFR degradation.
(§8) Imax (Dmax) is the maximum percentage of inhibition (degradation).
(§9) The IC50 (DC50) value of a compound can be obtained by fitting the following equation
(§10) Wherein, X and Y are known values, and IC50, Hillslope, Top and Bottom are the parameters obtained by fitting with software. Y is the inhibition percentage (calculated from the equation), X is the concentration of the compound; IC50 is the concentration of the compound when the 50% inhibition is reached. The smaller the IC50 value is, the stronger the inhibitory ability of the compound is. Vice versa, the higher the IC50 value is, the weaker the ability the inhibitory ability of the compound is; Hillslope represents the slope of the fitted curve, generally around 1*; Bottom represents the minimum value of the curve obtained by data fitting, which is generally 0%±20%; Top represents the maximum value of the curve obtained by data fitting, which is generally 100%±20%. The experimental data were fitted by calculating and analyzing with Dotmatics data analysis software.

[2] = target: T1, EGFR L858R/T790M/C797S (H1975-clone #25) (Homo sapiens, UniProt P00533, C797S/L858R/T790M); assay: EGFR degradation, HTRF total-EGFR assay, H1975-clone #25 (LTC); type: cell-based; conditions: H1975-clone #25 L858R/T790M/C797S, 16 h treatment
T1 construct: expressed in transfected cells; host or cells: H1975 (clone #25), lentiviral transduction, endogenous EGFR knocked out
From the text: as §1, §2, §3, §4, §5, §6, §7, §8, §9, §10

T1 sequence (P00533 25-1210 T790M/C797S/L858R): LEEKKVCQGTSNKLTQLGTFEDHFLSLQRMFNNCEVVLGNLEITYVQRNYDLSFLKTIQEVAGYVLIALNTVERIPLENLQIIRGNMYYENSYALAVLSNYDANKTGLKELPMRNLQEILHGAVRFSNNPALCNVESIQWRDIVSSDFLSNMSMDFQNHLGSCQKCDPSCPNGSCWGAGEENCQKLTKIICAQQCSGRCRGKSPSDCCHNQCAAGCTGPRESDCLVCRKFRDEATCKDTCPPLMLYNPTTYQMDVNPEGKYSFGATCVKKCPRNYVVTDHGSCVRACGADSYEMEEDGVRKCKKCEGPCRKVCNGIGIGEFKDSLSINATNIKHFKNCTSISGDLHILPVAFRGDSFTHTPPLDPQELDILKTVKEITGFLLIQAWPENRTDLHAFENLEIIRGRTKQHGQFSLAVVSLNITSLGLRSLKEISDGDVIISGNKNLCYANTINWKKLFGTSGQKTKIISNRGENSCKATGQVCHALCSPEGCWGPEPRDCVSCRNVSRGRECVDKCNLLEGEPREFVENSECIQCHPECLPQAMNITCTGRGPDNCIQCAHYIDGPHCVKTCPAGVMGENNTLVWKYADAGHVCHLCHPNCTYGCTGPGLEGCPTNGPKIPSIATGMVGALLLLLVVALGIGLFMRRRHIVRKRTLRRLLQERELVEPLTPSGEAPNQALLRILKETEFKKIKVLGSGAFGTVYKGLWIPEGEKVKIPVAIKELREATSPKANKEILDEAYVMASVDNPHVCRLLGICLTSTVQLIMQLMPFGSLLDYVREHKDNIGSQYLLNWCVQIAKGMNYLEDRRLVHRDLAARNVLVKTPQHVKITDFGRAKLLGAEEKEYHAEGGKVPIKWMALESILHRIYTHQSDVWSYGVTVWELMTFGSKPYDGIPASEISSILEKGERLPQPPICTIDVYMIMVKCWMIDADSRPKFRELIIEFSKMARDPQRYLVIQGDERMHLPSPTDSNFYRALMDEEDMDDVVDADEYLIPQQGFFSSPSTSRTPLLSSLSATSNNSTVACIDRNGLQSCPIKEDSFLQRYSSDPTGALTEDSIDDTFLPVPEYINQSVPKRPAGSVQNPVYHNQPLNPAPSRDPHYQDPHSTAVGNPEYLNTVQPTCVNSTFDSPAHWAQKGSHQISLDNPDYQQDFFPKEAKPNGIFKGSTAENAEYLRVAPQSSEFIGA
Chain of EGFR Del19/T790M/C797S (H1975-clone #28) (P00533 with tags, fused parts or gaps DEL746-750/T790M/C797S, form open): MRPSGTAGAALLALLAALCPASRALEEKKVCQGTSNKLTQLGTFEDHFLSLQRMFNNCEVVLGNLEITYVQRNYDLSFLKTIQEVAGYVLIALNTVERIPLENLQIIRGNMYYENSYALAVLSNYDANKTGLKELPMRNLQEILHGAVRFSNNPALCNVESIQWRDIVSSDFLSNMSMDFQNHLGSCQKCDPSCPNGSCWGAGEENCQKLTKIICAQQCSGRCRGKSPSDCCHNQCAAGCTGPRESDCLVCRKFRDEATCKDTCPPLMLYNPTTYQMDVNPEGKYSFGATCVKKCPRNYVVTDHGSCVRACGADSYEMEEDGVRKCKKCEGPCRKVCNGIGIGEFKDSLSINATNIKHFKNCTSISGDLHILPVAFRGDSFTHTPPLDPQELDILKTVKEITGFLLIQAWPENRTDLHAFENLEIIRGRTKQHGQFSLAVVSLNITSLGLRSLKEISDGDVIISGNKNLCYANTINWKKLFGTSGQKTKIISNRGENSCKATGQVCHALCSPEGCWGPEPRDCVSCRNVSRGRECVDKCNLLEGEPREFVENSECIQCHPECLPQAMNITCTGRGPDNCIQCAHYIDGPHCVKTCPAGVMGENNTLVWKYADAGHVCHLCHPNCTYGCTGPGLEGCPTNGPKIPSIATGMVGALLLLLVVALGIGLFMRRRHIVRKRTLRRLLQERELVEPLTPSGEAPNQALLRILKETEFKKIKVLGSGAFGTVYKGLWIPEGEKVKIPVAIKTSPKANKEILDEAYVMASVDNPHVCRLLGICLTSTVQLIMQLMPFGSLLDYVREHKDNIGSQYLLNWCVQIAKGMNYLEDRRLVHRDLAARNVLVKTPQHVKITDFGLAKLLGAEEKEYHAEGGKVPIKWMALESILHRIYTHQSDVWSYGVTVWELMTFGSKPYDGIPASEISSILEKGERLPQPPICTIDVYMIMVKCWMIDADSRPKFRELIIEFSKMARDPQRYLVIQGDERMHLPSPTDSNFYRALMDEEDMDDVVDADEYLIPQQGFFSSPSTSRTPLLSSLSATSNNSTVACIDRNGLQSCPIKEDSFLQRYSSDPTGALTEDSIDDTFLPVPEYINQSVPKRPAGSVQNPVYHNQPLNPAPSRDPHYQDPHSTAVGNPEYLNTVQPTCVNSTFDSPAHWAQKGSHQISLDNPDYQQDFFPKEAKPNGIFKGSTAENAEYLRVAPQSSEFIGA

| Compound | Degradation H1975 # 28 DTC [1] | Degradation H1975 # 25-LTC [2] |
| --- | --- | --- |
| Cc1cc2cc(n1)-c1cnn(C)c1OC[C@H]1C[C@@H](CN3/C(=N/C2=O)Nc2ccc(N4CCN(CC5CN(c6cc(F)c([C@H]7CCC(=O)NC7=O)c(F)c6)C5)CC4=O)cc23)C1 [Example 11, (R)-3-(4-(3-((4-((7^1s,7^3s,E)-1^1,2^6-dimethyl-3-oxo-5^2,5^3-dihydro-1^1H,5^1H-9-oxa-4-aza-5(2,1)-benzo[d]imidazola-2(2,4)-pyridina-1(4,5)-pyrazola-7(1,3)-cyclobutanacyclononaphane-5^6-yl)-3-oxopiperazin-1-yl)methyl)azetidin-1-yl)-2,6-difluorophenyl)piperidine-2,6-dione] | 91.5 | 85.4 |
| Cc1cc2cc(n1)-c1cnn(C)c1OC[C@H]1C[C@@H](CN3/C(=N/C2=O)Nc2ccc(N4CCN(C5CCN(c6ccc(C7CCC(=O)NC7=O)nc6)CC5)CC4=O)cc23)C1 (some centres unmarked) [Example 12, 3-(5-(4-(4-((7^1s,7^3s,E)-1^1,2^6-dimethyl-3-oxo-5^2,5^3-dihydro-1^1H,5^1H-9-oxa-4-aza-5(2,1)-benzo[d]imidazola-2(2,4)-pyridina-1(4,5)-pyrazola-7(1,3)-cyclobutanacyclononaphane-5^6-yl)-3-oxopiperazin-1-yl)piperidin-1-yl)pyridin-2-yl)piperidine-2,6-dione] | 85.3 | 79.0 |
| Cc1cc2cc(n1)-c1cnn(C)c1OC[C@H]1C[C@@H](CN3/C(=N/C2=O)Nc2ccc(N4CCN(C5CCN(c6ccc(C7CCC(=O)NC7=O)nc6)CC5)CC4)cc23)C1 (some centres unmarked) [Example 15, 3-(5-(4-(4-((7^1s,7^3s,E)-1^1,2^6-dimethyl-3-oxo-5^2,5^3-dihydro-1^1H,5^1H-9-oxa-4-aza-5(2,1)-benzo[d]imidazola-2(2,4)-pyridina-1(4,5)-pyrazola-7(1,3)-cyclobutanacyclononaphane-5^6-yl)piperazin-1-yl)piperidin-1-yl)pyridin-2-yl)piperidine-2,6-dione] | 76.0 | 87.3 |
| Cc1cc2cc(n1)-c1cnn(C)c1OC[C@H]1C[C@@H](CN3/C(=N/C2=O)Nc2ccc(N4CCC(N5CCN(c6cc(F)c([C@H]7CCC(=O)NC7=O)c(F)c6)CC5)CC4)cc23)C1 [Example 17, (R)-3-(4-(4-(1-((7^1s,7^3s,E)-1^1,2^6-dimethyl-3-oxo-5^2,5^3-dihydro-1^1H,5^1H-9-oxa-4-aza-5(2,1)-benzo[d]imidazola-2(2,4)-pyridina-1(4,5)-pyrazola-7(1,3)-cyclobutanacyclononaphane-5^6-yl)piperidin-4-yl)piperazin-1-yl)-2,6-difluorophenyl)piperidine-2,6-dione] | 86.2 | 88.3 |
| Cc1cc2cc(n1)-c1cnn(C)c1OC[C@H]1C[C@@H](CN3/C(=N/C2=O)Nc2ccc(N4CCN(C5CCN(c6cc(F)c([C@H]7CCC(=O)NC7=O)c(F)c6)CC5)C[C@H]4C)cc23)C1 [Example 18, (R)-3-(4-(4-((R)-4-((7^1s,7^3S,E)-1^1,2^6-dimethyl-3-oxo-5^2,5^3-dihydro-1^1H,5^1H-9-oxa-4-aza-5(2,1)-benzo[d]imidazola-2(2,4)-pyridina-1(4,5)-pyrazola-7(1,3)-cyclobutanacyclononaphane-5^6-yl)-3-methylpiperazin-1-yl)piperidin-1-yl)-2,6-difluorophenyl)piperidine-2,6-dione] | 88.4 | 88.6 |
| Cc1cc2cc(n1)-c1cnn(C)c1OC[C@H]1C[C@@H](CN3/C(=N/C2=O)Nc2ccc(N4CCN([C@H]5CCN(c6ccc(C7CCC(=O)NC7=O)nc6C)C[C@H]5F)CC4)cc23)C1 (stereo partly drawn) [Example 19, 3-(5-((3R,4S)-4-(4-((7^1s,7^3R,E)-1^1,2^6-dimethyl-3-oxo-5^2,5^3-dihydro-1^1H,5^1H-9-oxa-4-aza-5(2,1)-benzo[d]imidazola-2(2,4)-pyridina-1(4,5)-pyrazola-7(1,3)-cyclobutanacyclononaphane-5^6-yl)piperazin-1-yl)-3-fluoropiperidin-1-yl)-6-methylpyridin-2-yl)piperidine-2,6-dione] | 92.8 | 92.2 |
| COC[C@@H]1CN(c2ccc3c(c2)N2C[C@H]4C[C@@H](COc5c(cnn5C)-c5cc(cc(C)n5)C(=O)/N=C/2N3)C4)CCN1C1CCN(c2cc(F)c([C@H]3CCC(=O)NC3=O)c(F)c2)CC1 [Example 20, (R)-3-(4-(4-((S)-4-((7^1s,7^3R,E)-1^1,2^6-dimethyl-3-oxo-5^2,5^3-dihydro-1^1H,5^1H-9-oxa-4-aza-5(2,1)-benzo[d]imidazola-2(2,4)-pyridina-1(4,5)-pyrazola-7(1,3)-cyclobutanacyclononaphane-5^6-yl)-2-(methoxymethyl)piperazin-1-yl)piperidin-1-yl)-2,6-difluorophenyl)piperidine-2,6-dione] | 89.8 | 92.5 |
| Cc1cc2cc(n1)-c1cnn(C)c1OC[C@H]1C[C@@H](CN3/C(=N/C2=O)Nc2ccc(N4CCN(C5CCN(c6ccc(C7CCC(=O)NC7=O)nc6C)CC5)CC4)cc23)C1 (some centres unmarked) [Example 21, 3-(5-(4-(4-((7^1s,7^3s,E)-1^1,2^6-dimethyl-3-oxo-5^2,5^3-dihydro-1H,5^1H-9-oxa-4-aza-5(2,1)-benzo[d]imidazola-2(2,4)-pyridina-1(4,5)-pyrazola-7(1,3)-cyclobutanacyclononaphane-5^6-yl)piperazin-1-yl)piperidin-1-yl)-6-methylpyridin-2-yl)piperidine-2,6-dione] | 91.5 | 94.0 |
| Cc1cc2cc(n1)-c1cnn(C)c1OC[C@H]1C[C@@H](CN3/C(=N/C2=O)Nc2ccc(N4CCN(C5CCN(c6ccc(C7CCC(=O)NC7=O)nc6C)CC5)CC4=O)cc23)C1 (some centres unmarked) [Example 22, 3-(5-(4-(4-((7^1s,7^3s,E)-1^1,2^6-dimethyl-3-oxo-5^2,5^3-dihydro-1^1H,5^1H-9-oxa-4-aza-5(2,1)-benzo[d]imidazola-2(2,4)-pyridina-1(4,5)-pyrazola-7(1,3)-cyclobutanacyclononaphane-5^6-yl)-3-oxopiperazin-1-yl)piperidin-1-yl)-6-methylpyridin-2-yl)piperidine-2,6-dione] | 89.5 | 91.7 |
| COC[C@H]1CN(c2ccc3c(c2)N2C[C@H]4C[C@@H](COc5c(cnn5C)-c5cc(cc(C)n5)C(=O)/N=C/2N3)C4)CCN1C1CCN(c2cnc(C3CCC(=O)NC3=O)cc2C)CC1 (stereo partly drawn) [Example 23, 3-(5-(4-((R)-4-((7^1s,7^3S,E)-1^1,2^6-dimethyl-3-oxo-5^2,5^3-dihydro-1^1H,5^1H-9-oxa-4-aza-5(2,1)-benzo[d]imidazola-2(2,4)-pyridina-1(4,5)-pyrazola-7(1,3)-cyclobutanacyclononaphane-5^6-yl)-2-(methoxymethyl)piperazin-1-yl)piperidin-1-yl)-4-methylpyridin-2-yl)piperidine-2,6-dione] | 87.0 | 91.3 |
